According to ChEMBL document CHEMBL4177573 (Bioorg Med Chem, 2017):
Square brackets hold non-standard residues; d marks the D form. Peptide text beside a SMILES is read from it. Cha = N[C@@H](CC1CCCCC1)C(=O)O; Aib = CC(C)(N)C(=O)O

Experiments:
[1] = MRT in C57BL/6J mouse at 1 mg/kg, sc measured during 5 mins to 24 hrs by LC/MS/MS method; format: ADME, organism-based; conditions: in vivo
[2] = biological target: T1, Neuropeptide Y receptor type 2 (Homo sapiens, UniProt P49146); experiment: Displacement of [125I]-PYY from human neuropeptide Y2 receptor expressed in CHO cell membranes incubated for 60 mins by TopCount based method
T1 sequence (P49146 whole entry): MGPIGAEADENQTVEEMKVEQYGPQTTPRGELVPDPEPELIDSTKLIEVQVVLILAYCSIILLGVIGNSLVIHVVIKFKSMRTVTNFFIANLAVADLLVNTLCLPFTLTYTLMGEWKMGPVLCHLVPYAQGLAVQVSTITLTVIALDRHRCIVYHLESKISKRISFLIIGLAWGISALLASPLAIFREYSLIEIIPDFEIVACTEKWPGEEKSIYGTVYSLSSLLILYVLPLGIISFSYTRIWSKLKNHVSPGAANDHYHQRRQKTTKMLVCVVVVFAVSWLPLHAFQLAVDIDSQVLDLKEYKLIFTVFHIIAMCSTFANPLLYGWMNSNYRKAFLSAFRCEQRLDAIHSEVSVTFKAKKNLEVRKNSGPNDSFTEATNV

Mus musculus [3] = experiment: Anorectic activity in C57BL/6J mouse assessed as inhibition of food intake at 0.3 mg/kg/day, sc dosed as […] and measured after 12 hrs; format: functional
[4] = AUC (0 to 24 hrs) in C57BL/6J mouse at 1 mg/kg, iv measured during 5 mins to 24 hrs by LC/MS/MS method; format: ADME, organism-based; design: dose 1 mg/kg, time < 24 hr, route intravenous; conditions: in vivo
Mus musculus [5] = experiment: Anorectic activity in C57BL/6J mouse assessed as inhibition of food intake at 0.1 mg/kg/day, sc for 3 days dosed as continuous administration by infusion using osmotic pump; format: functional; conditions: 72 h
[6] = MRT in C57BL/6J mouse at 1 mg/kg, iv measured during 5 mins to 24 hrs by LC/MS/MS method; format: ADME, organism-based; conditions: in vivo
[7] = Cmax in C57BL/6J mouse at 1 mg/kg, sc measured during 5 mins to 24 hrs by LC/MS/MS method; format: ADME, organism-based; design: dose 1 mg/kg, route subcutaneous; conditions: in vivo
Mus musculus [8] = experiment: Drug level in C57BL/6J mouse at 1 mg/kg, iv measured during 5 mins to 24 hrs by LC/MS/MS method; format: ADME, organism-based; conditions: in vivo, read-out: Drug uptake
[9] = Total clearance in C57BL/6J mouse at 1 mg/kg, iv measured during 5 mins to 24 hrs by LC/MS/MS method; format: ADME, organism-based; conditions: in vivo
Mus musculus [10] = experiment: Anorectic activity in C57BL/6J mouse assessed as inhibition of food intake at 0.03 mg/kg/day, sc for 3 days dosed as continuous administration by infusion using osmotic pump; format: functional; conditions: 72 h
[11] = Volume of distribution at steady state in C57BL/6J mouse at 1 mg/kg, iv measured during 5 mins to 24 hrs by LC/MS/MS method; format: ADME, organism-based; conditions: in vivo, read-out: Vdss
[12] = Tmax in C57BL/6J mouse at 1 mg/kg, sc measured during 5 mins to 24 hrs by LC/MS/MS method; format: ADME, organism-based; conditions: in vivo
[13] = AUC (0 to 24 hrs) in C57BL/6J mouse at 1 mg/kg, sc measured during 5 mins to 24 hrs by LC/MS/MS method; format: ADME, organism-based; design: time < 24 hr, dose 1 mg/kg, route subcutaneous; conditions: in vivo
Mus musculus [14] = experiment: Anorectic activity in C57BL/6J mouse assessed as inhibition of food intake at 0.3 mg/kg/day, sc dosed as […] and measured after 24 hrs; format: functional
[15] = Bioavailability in C57BL/6J mouse at 1 mg/kg, sc measured during 5 mins to 24 hrs by LC/MS/MS method; format: ADME, organism-based; conditions: in vivo
[16] = biological target: T1, Neuropeptide Y receptor type 2; experiment: Agonist activity at human neuropeptide Y2 receptor expressed in CHO cell membranes assessed as stimulation of [35S]GTPgammaS binding incubated for 120 mins by liquid scintillation counting method; format: functional
Mus musculus [17] = experiment: Anorectic activity in C57BL/6J mouse assessed as inhibition of food intake at 1 mg/kg/day, sc for 3 days dosed as continuous administration by infusion using osmotic pump; format: functional; conditions: 72 h
Mus musculus [18] = experiment: Anorectic activity in C57BL/6J mouse assessed as inhibition of food intake at 0.3 mg/kg/day, sc for 3 days dosed as continuous administration by infusion using osmotic pump; format: functional; conditions: 72 h
Mus musculus [19] = experiment: Antiobesity activity in DIO C57BL/6J mouse assessed as reduction in body weight at 0.01 mg/kg, sc for 2 weeks dosed as continuous administration by infusion of osmotic pumps; format: functional; conditions: 336 h
Mus musculus [20] = experiment: Antiobesity activity in DIO C57BL/6J mouse assessed as reduction in body weight at 1 mg/kg, sc […] for 2 weeks dosed by infusion of osmotic pumps; format: functional; conditions: 336 h

IC50 [2]	EC50 [16]	SMILES	inhibition in vivo at 0.3 mg/kg/day (Mus musculus [3])	inhibition in vivo at 0.1 mg/kg/day (Mus musculus [5])	inhibition in vivo at 0.03 mg/kg/day (Mus musculus [10])	inhibition in vivo at 0.3 mg/kg/day (Mus musculus [14])	inhibition in vivo at 1 mg/kg/day (Mus musculus [17])	also measured
1.8 nM	0.28 nM	CC[C@](C)(NC(=O)[C@H]1CCCN1C(=O)[C@H](CO)NC(C)=O)C(=O)N[C@@H](Cc1ccncc1)C(=O)N[C@@H](CC1CCCCC1)C(=O)NC(C)(C)C(=O)N[C@@H](CC(N)=O)C(=O)N[C@@H](CCCCN)C(=O)NC(C)(C)C(=O)N[C@H](C(=O)N[C@@H](CCCNC(=N)N)C(=O)N[C@@H](CCC(N)=O)C(=O)N[C@@H](CCCNC(=N)N)C(=O)N[C@@H](CC1CCCCC1)C(N)=O)[C@@H](C)O	22%	68%	46%	7%	–	MRT [1]: 22.2 min; AUC(0-t) at 24 h [4]: 0.232 µM·h; MRT [6]: 12 min; Cmax [7]: 227 nM; concentration (Mus musculus [8]): 1270 nM; clearance [9]: 41 mL/min/kg; Vd [11]: 0.5 L/kg; Tmax [12]: 15 min; AUC(0-t) at 24 h [13]: 0.125 µM·h; bioavailability [15]: 53.7%
1.3 nM	0.49 nM	CC(C)C[C@H](NC(=O)[C@H](CC(N)=O)NC(=O)[C@H](CC1CCCCC1)NC(=O)[C@H](CC1CCCCC1)NC(=O)[C@H](Cc1cnc[nH]1)NC(=O)[C@H](CCCNC(=N)N)NC(=O)[C@H]1CCCN1C(=O)[C@H](CO)NC(=O)C(C)C)C(=O)NC(C)(C)C(=O)N[C@H](C(=O)N[C@@H](CCCNC(=N)N)C(=O)N[C@@H](CCC(N)=O)C(=O)N[C@@H](CCCNC(=N)N)C(=O)N[C@@H](CC1CCCCC1)C(N)=O)[C@@H](C)O	–	–	–	–	46%	–
3.8 nM	0.5 nM	CC[C@@](C)(NC(=O)[C@H]1CCCN1C(=O)[C@H](CO)NC(C)=O)C(=O)N[C@@H](Cc1cnc[nH]1)C(=O)N[C@@H](CC1CCCCC1)C(=O)N[C@@H](CC1CCCCC1)C(=O)N[C@@H](CC(N)=O)C(=O)N[C@@H](CC(C)C)C(=O)NC(C)(C)C(=O)N[C@H](C(=O)N[C@@H](CCCNC(=N)N)C(=O)N[C@@H](CCC(N)=O)C(=O)N[C@@H](CCCNC(=N)N)C(=O)N[C@@H](CC1CCCCC1)C(N)=O)[C@@H](C)O	–	–	–	–	–	inhibition in vivo at 0.3 mg/kg/day (Mus musculus [18]): 33%
0.46 nM	0.17 nM	CC[C@](C)(NC(=O)[C@H](CC1CCCCC1)NC(=O)[C@H](Cc1ccncc1)NC(=O)[C@](C)(CC)NC(=O)[C@H]1C[C@H](O)CN1C(=O)[C@H](CO)NC(C)=O)C(=O)N[C@@H](CC(N)=O)C(=O)N[C@@H](CCCCN)C(=O)NC(C)(C)C(=O)N[C@H](C(=O)N[C@@H](CCCNC(=N)N)C(=O)N[C@@H](CCC(N)=O)C(=O)N[C@@H](CCCNC(=N)N)C(=O)N[C@@H](CC1CCCCC1)C(N)=O)[C@@H](C)O	38%	–	56%	23%	–	MRT [1]: 31.2 min; AUC(0-t) at 24 h [4]: 0.435 µM·h; MRT [6]: 21 min; Cmax [7]: 666 nM; concentration (Mus musculus [8]): 1660 nM; clearance [9]: 19.5 mL/min/kg; Vd [11]: 0.41 L/kg; Tmax [12]: 15 min; AUC(0-t) at 24 h [13]: 0.469 µM·h; bioavailability [15]: 108%; inhibition in vivo at 0.01 mg/kg (Mus musculus [19]): 5%; inhibition in vivo at 1 mg/kg (Mus musculus [20]): 1.7%
2.3 nM	0.4 nM	CC(C)C[C@H](NC(=O)[C@H](CC(N)=O)NC(=O)[C@H](CC1CCCCC1)NC(=O)[C@H](CC1CCCCC1)NC(=O)[C@H](Cc1cnc[nH]1)NC(=O)[C@H](CCCNC(=N)N)NC(=O)[C@H]1CCCN1C(=O)[C@H](CO)NC(=O)CCC(=O)O)C(=O)NC(C)(C)C(=O)N[C@H](C(=O)N[C@@H](CCCNC(=N)N)C(=O)N[C@@H](CCC(N)=O)C(=O)N[C@@H](CCCNC(=N)N)C(=O)N[C@@H](CC1CCCCC1)C(N)=O)[C@@H](C)O	–	–	–	–	103%	–
–	–	CC(=O)N[C@@H](CO)C(=O)N1CCC[C@@H]1C(=O)N[C@@H](CCCNC(=N)N)C(=O)N[C@@H](Cc1cnc[nH]1)C(=O)N[C@@H](CC1CCCCC1)C(=O)N[C@@H](CC1CCCCC1)C(=O)N[C@@H](CC(N)=O)C(=O)N[C@@H](CC(C)C)C(=O)NC(C)(C)C(=O)N[C@H](C(=O)N[C@@H](CCCNC(=N)N)C(=O)N[C@@H](CCC(N)=O)C(=O)N[C@@H](CCCNC(=N)N)C(=O)N[C@@H](CC1CCCCC1)C(N)=O)[C@@H](C)O (Ac-S[dP]RH[Cha][Cha]NL[Aib]TRQR[Cha]-NH2)	–	–	–	–	33%	–
16 nM	2 nM	CC[C@](C)(NC(=O)[C@H]1CCCN1C(=O)[C@H](CO)NC(C)=O)C(=O)N[C@@H](Cc1cnc[nH]1)C(=O)N[C@@H](CC1CCCCC1)C(=O)N[C@@H](CC1CCCCC1)C(=O)N[C@@H](CC(N)=O)C(=O)N[C@@H](CC(C)C)C(=O)NC(C)(C)C(=O)N[C@H](C(=O)N[C@@H](CCCNC(=N)N)C(=O)N[C@@H](CCC(N)=O)C(=O)N[C@@H](CCCNC(=N)N)C(=O)N[C@@H](CC1CCCCC1)C(N)=O)[C@@H](C)O	–	–	–	–	–	inhibition in vivo at 0.3 mg/kg/day (Mus musculus [18]): 2%
1.5 nM	0.8 nM	CC(C)C[C@H](NC(=O)[C@H](CC(N)=O)NC(=O)[C@H](CC1CCCCC1)NC(=O)[C@H](CC1CCCCC1)NC(=O)[C@H](Cc1cnc[nH]1)NC(=O)[C@H](CCCNC(=N)N)NC(=O)[C@H]1CCCN1C(=O)[C@H](CO)NC(=O)c1ccccc1)C(=O)NC(C)(C)C(=O)N[C@H](C(=O)N[C@@H](CCCNC(=N)N)C(=O)N[C@@H](CCC(N)=O)C(=O)N[C@@H](CCCNC(=N)N)C(=O)N[C@@H](CC1CCCCC1)C(N)=O)[C@@H](C)O	–	–	–	–	7%	–
0.27 nM	0.11 nM	CC[C@@](C)(NC(=O)[C@H](CCCCN)NC(=O)[C@H](CC(N)=O)NC(=O)C(C)(C)NC(=O)[C@H](CC1CCCCC1)NC(=O)[C@H](Cc1ccncc1)NC(=O)[C@H](CCCNC(=N)N)NC(=O)[C@H]1CCCN1C(=O)[C@H](CO)NC(C)=O)C(=O)N[C@H](C(=O)N[C@@H](CCCNC(=N)N)C(=O)N[C@@H](CCC(N)=O)C(=O)N[C@@H](CCCNC(=N)N)C(=O)N[C@@H](CC1CCCCC1)C(N)=O)[C@@H](C)O	–	86%	34%	–	–	–
0.16 nM	0.14 nM	CC[C@](C)(NC(=O)[C@H](CC1CCCCC1)NC(=O)[C@H](Cc1ccncc1)NC(=O)[C@H](CCCNC(=N)N)NC(=O)[C@H]1CCCN1C(=O)[C@H](CO)NC(C)=O)C(=O)N[C@@H](CC(N)=O)C(=O)N[C@@H](CCCCN)C(=O)NC(C)(C)C(=O)N[C@H](C(=O)N[C@@H](CCCNC(=N)N)C(=O)N[C@@H](CCC(N)=O)C(=O)N[C@@H](CCCNC(=N)N)C(=O)N[C@@H](CC1CCCCC1)C(N)=O)[C@@H](C)O	41%	85%	36%	23%	–	–
–	–	CC(=O)N[C@@H](CO)C(=O)N1CCC[C@@H]1C(=O)N[C@@H](CCCNC(=N)N)C(=O)N[C@@H](Cc1ccncc1)C(=O)N[C@@H](CC1CCCCC1)C(=O)NC(C)(C)C(=O)N[C@@H](CC(N)=O)C(=O)N[C@@H](CCCCN)C(=O)NC(C)(C)C(=O)N[C@H](C(=O)N[C@@H](CCCNC(=N)N)C(=O)N[C@@H](CCC(N)=O)C(=O)N[C@@H](CCCNC(=N)N)C(=O)N[C@@H](CC1CCCCC1)C(N)=O)[C@@H](C)O	35%	80%	38%	15%	–	concentration (Mus musculus [8]): 1060 nM; inhibition in vivo at 0.3 mg/kg/day (Mus musculus [18]): 112%
